Experimental data: the supplement of paper PMC13380429

Experiments:
[1] = tested on: Vero E6; test: relative viability EC50 (midpoint between 100% and the lowest measured viability); higher = less toxic; conditions: 72 h
[2] = tested on: Caco-2; test: as above; conditions: 72 h
[3] = tested on: U2OS; test: as above; conditions: 72 h
[4] = tested on: Calu-3; test: as above; conditions: 72 h
[5] = tested on: Vero E6; test: cell viability relative to DMSO; higher = less toxic; conditions: 72 h
[6] = tested on: Caco-2; test: as above; conditions: 72 h
[7] = tested on: U2OS; test: as above; conditions: 72 h
[8] = tested on: HepG2; test: as above; conditions: 72 h
[9] = tested on: Calu-3; test: as above; conditions: 72 h
[10] = tested on: A549-ACE2 infected with SARS-CoV-2; test: SARS-CoV-2 infection rate relative to DMSO; higher = more infection; conditions: 24 h
[11] = tested on: A549-ACE2 infected with SARS-CoV-2; test: morphology score (similarity to uninfected cells); higher = more like uninfected cells; conditions: 24 h
[12] = tested on: Vero E6; test: drug sensitivity score (DSS) for viability; higher = more toxic; extreme values may be limits of the assay; conditions: 72 h
[13] = tested on: Caco-2; test: as above; conditions: 72 h
[14] = tested on: U2OS; test: as above; conditions: 72 h
[15] = tested on: HepG2; test: as above; conditions: 72 h
[16] = tested on: Calu-3; test: as above; conditions: 72 h
[17] = tested on: A549-ACE2 infected with SARS-CoV-2; test: cell count relative to DMSO; higher = less toxic; conditions: 24 h
[18] = tested on: A549-ACE2; test: drug-induced phospholipidosis relative to tamoxifen; higher = more phospholipidosis
[19] = tested on: A549-ACE2; test: phospholipidosis EC50; higher = less potent phospholipidosis inducer
[20] = tested on: HepG2; test: relative viability EC50 (midpoint between 100% and the lowest measured viability); higher = less toxic; conditions: 72 h

C[C@@H]1CN(CC(=O)Nc2ccc3c(c2)Cc2cccc(-c4cc(=O)cc(N5CCOCC5)o4)c2S3)C[C@H](C)O1
Conditions	drug sensitivity score	relative viability EC50 [µM]
[1]	–	> 10
[2]	–	3.48
[3]	–	> 10
[4]	–	> 10
[12]	0.4	–
[13]	2.5	–
[14]	0	–
[15]	3	–
[16]	0	–

Conditions	SARS-CoV-2 infection rate [%]	cell count [%]	cell viability [%]	morphology score	phospholipidosis EC50 [µM]
[5], 1 nM	–	–	103	–	–
[5], 10 nM	–	–	99.2	–	–
[5], 100 nM	–	–	103	–	–
[5], 1000 nM	–	–	104	–	–
[5], 10000 nM	–	–	80.9	–	–
[6], 1 nM	–	–	97.2	–	–
[6], 10 nM	–	–	103	–	–
[6], 100 nM	–	–	101	–	–
[6], 1000 nM	–	–	103	–	–
[6], 10000 nM	–	–	47.3	–	–
[7], 1 nM	–	–	102	–	–
[7], 10 nM	–	–	104	–	–
[7], 100 nM	–	–	95.7	–	–
[7], 1000 nM	–	–	98.7	–	–
[7], 10000 nM	–	–	89.6	–	–
[8], 1 nM	–	–	105	–	–
[8], 10 nM	–	–	101	–	–
[8], 100 nM	–	–	97.8	–	–
[8], 1000 nM	–	–	96	–	–
[8], 10000 nM	–	–	54.3	–	–
[9], 1 nM	–	–	99.4	–	–
[9], 10 nM	–	–	104	–	–
[9], 100 nM	–	–	99.4	–	–
[9], 1000 nM	–	–	105	–	–
[9], 10000 nM	–	–	99.3	–	–
[10], 0.3 µM	108	–	–	–	–
[10], 3 µM	98	–	–	–	–
[10], 10 µM	62	–	–	–	–
[10], 30 µM	68	–	–	–	–
[11], 0.3 µM	–	–	–	0.15	–
[11], 3 µM	–	–	–	0.09	–
[11], 10 µM	–	–	–	0.57	–
[11], 30 µM	–	–	–	0.45	–
[17], 0.3 µM	–	115	–	–	–
[17], 3 µM	–	103	–	–	–
[17], 10 µM	–	113	–	–	–
[17], 30 µM	–	104	–	–	–
[19], 72 h	–	–	–	–	20

drug-induced phospholipidosis [%], [18]
Conditions	0.3 µM	0.833333 µM	3.33333 µM	6.66667 µM	10 µM	30 µM
24 h	-1.06	-2.12	-2.36	1.18	7.55	66.8
48 h	-1.36	-2.9	-1.74	0	6.05	52.4
72 h	-1.2	-4.15	-2.75	0.476	6.88	56.1

Cc1cc(CN)cc(C)c1NC(=O)c1ccc(-c2cc(Cl)ccc2Cl)o1
Conditions	drug sensitivity score	relative viability EC50 [µM]
[1]	–	> 10
[2]	–	> 10
[3]	–	> 10
[12]	0	–
[13]	0.6	–
[14]	0.3	–
[15]	1.2	–
[16]	1.8	–

Conditions	SARS-CoV-2 infection rate [%]	cell count [%]	cell viability [%]	morphology score	phospholipidosis EC50 [µM]
[5], 1 nM	–	–	103	–	–
[5], 10 nM	–	–	97.5	–	–
[5], 100 nM	–	–	105	–	–
[5], 1000 nM	–	–	96.6	–	–
[5], 10000 nM	–	–	96.8	–	–
[6], 1 nM	–	–	105	–	–
[6], 10 nM	–	–	101	–	–
[6], 100 nM	–	–	98.1	–	–
[6], 1000 nM	–	–	102	–	–
[6], 10000 nM	–	–	79.1	–	–
[7], 1 nM	–	–	98	–	–
[7], 10 nM	–	–	102	–	–
[7], 100 nM	–	–	98.5	–	–
[7], 1000 nM	–	–	101	–	–
[7], 10000 nM	–	–	83.1	–	–
[8], 1 nM	–	–	106	–	–
[8], 10 nM	–	–	103	–	–
[8], 100 nM	–	–	97.8	–	–
[8], 1000 nM	–	–	107	–	–
[8], 10000 nM	–	–	66.7	–	–
[9], 1 nM	–	–	104	–	–
[9], 10 nM	–	–	101	–	–
[9], 100 nM	–	–	104	–	–
[9], 1000 nM	–	–	102	–	–
[9], 10000 nM	–	–	60.1	–	–
[10], 0.3 µM	101	–	–	–	–
[10], 3 µM	34	–	–	–	–
[10], 10 µM	10	–	–	–	–
[10], 30 µM	43	–	–	–	–
[11], 0.3 µM	–	–	–	0.02	–
[11], 3 µM	–	–	–	0.84	–
[11], 10 µM	–	–	–	0.68	–
[11], 30 µM	–	–	–	-0.13	–
[17], 0.3 µM	–	101	–	–	–
[17], 3 µM	–	120	–	–	–
[17], 10 µM	–	120	–	–	–
[17], 30 µM	–	1	–	–	–
[19], 24 h	–	–	–	–	2.39
[19], 48 h	–	–	–	–	3.42
[19], 72 h	–	–	–	–	4.24

drug-induced phospholipidosis [%], [18]
Conditions	0.3 µM	0.833333 µM	3.33333 µM	6.66667 µM	10 µM
24 h	2.63	5.94	68	88.7	90.2
48 h	3.74	4.56	48.1	81.5	90.1
72 h	1.91	1.3	32.6	66.3	78.5

COC(=O)[C@]12CCC(C)(C)C[C@H]1[C@H]1C(=O)C=C3[C@@]4(C)C=C(C#N)C(=O)C(C)(C)[C@@H]4CC[C@@]3(C)[C@]1(C)CC2 [Bardoxolone Methyl]
Conditions	drug sensitivity score	relative viability EC50 [µM]
[1]	–	0.293
[2]	–	0.313
[3]	–	0.292
[4]	–	0.503
[12]	18.3	–
[13]	17.5	–
[14]	18.4	–
[15]	19.4	–
[16]	15.4	–
[20]	–	0.239

Conditions	SARS-CoV-2 infection rate, [10] [%]	cell count, [17] [%]	cell viability, [5] [%]	cell viability, [6] [%]	cell viability, [7] [%]	cell viability, [8] [%]	cell viability, [9] [%]	morphology score, [11]
1 nM	–	–	98.6	86.4	101	94.7	107	–
10 nM	–	–	107	88.7	96.7	107	124	–
100 nM	–	–	92.3	85.9	96.6	87.4	117	–
0.3 µM	98	97	–	–	–	–	–	0.09
1000 nM	–	–	5.5	14.1	0.1	4	12.8	–
3 µM	61	5	–	–	–	–	–	-0.03
10000 nM	–	–	-0.3	-0.2	-0.3	-0.2	0	–

[18], 0.3 µM
Conditions	drug-induced phospholipidosis [%]
24 h	0.65
48 h	2.45
72 h	7

CC1(N2CCC(n3c([C@@H]4CCCNC4)nc4ccccc43)CC2)CCCCCCC1 [MCOPPB]
Conditions	drug sensitivity score	relative viability EC50 [µM]
[1]	–	> 10
[2]	–	> 10
[3]	–	> 10
[4]	–	3.09
[12]	0	–
[13]	0	–
[14]	0	–
[15]	4.2	–
[16]	5.3	–

Conditions	SARS-CoV-2 infection rate [%]	cell count [%]	cell viability [%]	morphology score	phospholipidosis EC50 [µM]
[5], 1 nM	–	–	101	–	–
[5], 10 nM	–	–	101	–	–
[5], 100 nM	–	–	106	–	–
[5], 1000 nM	–	–	99	–	–
[5], 10000 nM	–	–	98.9	–	–
[6], 1 nM	–	–	111	–	–
[6], 10 nM	–	–	105	–	–
[6], 100 nM	–	–	93.5	–	–
[6], 1000 nM	–	–	100	–	–
[6], 10000 nM	–	–	89.3	–	–
[7], 1 nM	–	–	98.6	–	–
[7], 10 nM	–	–	104	–	–
[7], 100 nM	–	–	98.6	–	–
[7], 1000 nM	–	–	100	–	–
[7], 10000 nM	–	–	91.4	–	–
[8], 1 nM	–	–	94	–	–
[8], 10 nM	–	–	100	–	–
[8], 100 nM	–	–	99.5	–	–
[8], 1000 nM	–	–	87.5	–	–
[8], 10000 nM	–	–	55.1	–	–
[9], 1 nM	–	–	99.2	–	–
[9], 10 nM	–	–	99.8	–	–
[9], 100 nM	–	–	91.6	–	–
[9], 1000 nM	–	–	99	–	–
[9], 10000 nM	–	–	7.3	–	–
[10], 0.3 µM	89	–	–	–	–
[10], 3 µM	23	–	–	–	–
[10], 10 µM	16	–	–	–	–
[10], 30 µM	27	–	–	–	–
[11], 0.3 µM	–	–	–	0.38	–
[11], 3 µM	–	–	–	0.73	–
[11], 10 µM	–	–	–	0.28	–
[11], 30 µM	–	–	–	-0.07	–
[17], 0.3 µM	–	106	–	–	–
[17], 3 µM	–	115	–	–	–
[17], 10 µM	–	119	–	–	–
[17], 30 µM	–	120	–	–	–
[19], 24 h	–	–	–	–	1.64
[19], 48 h	–	–	–	–	3.3
[19], 72 h	–	–	–	–	4.88

drug-induced phospholipidosis [%], [18]
Conditions	0.3 µM	0.833333 µM	3.33333 µM	6.66667 µM	10 µM	30 µM
24 h	5.09	34	89.2	113	138	112
48 h	5.47	17.9	70.6	117	145	111
72 h	4.22	12.1	45	98.9	137	141
